Usually EC50 stands for the concentration at which the effect is half-maximal. Read a low EC50 as a more potent agent.

The text below walks through data of ChEMBL document CHEMBL5226282, “TLR2 Agonistic Small Molecules: Detailed Structure-Activity Relationship, Applications, and Future Prospects” (J Med Chem, 2021).

Experiment [1] addresses Toll-like receptor 1/2 (Mus musculus). The experiment in a line: Agonist activity at TLR2/TLR1 in mouse Macrophage cell line.
For a further experiment, the target named is Toll-like receptor 1/2 (Homo sapiens, UniProt O60603+Q15399). Kind of experiment: Agonist activity at TLR2/TLR1 in human THP-1 cells. Type of experiment: cell-based.
Chain of Toll-like receptor 1/2 (O60603 whole entry): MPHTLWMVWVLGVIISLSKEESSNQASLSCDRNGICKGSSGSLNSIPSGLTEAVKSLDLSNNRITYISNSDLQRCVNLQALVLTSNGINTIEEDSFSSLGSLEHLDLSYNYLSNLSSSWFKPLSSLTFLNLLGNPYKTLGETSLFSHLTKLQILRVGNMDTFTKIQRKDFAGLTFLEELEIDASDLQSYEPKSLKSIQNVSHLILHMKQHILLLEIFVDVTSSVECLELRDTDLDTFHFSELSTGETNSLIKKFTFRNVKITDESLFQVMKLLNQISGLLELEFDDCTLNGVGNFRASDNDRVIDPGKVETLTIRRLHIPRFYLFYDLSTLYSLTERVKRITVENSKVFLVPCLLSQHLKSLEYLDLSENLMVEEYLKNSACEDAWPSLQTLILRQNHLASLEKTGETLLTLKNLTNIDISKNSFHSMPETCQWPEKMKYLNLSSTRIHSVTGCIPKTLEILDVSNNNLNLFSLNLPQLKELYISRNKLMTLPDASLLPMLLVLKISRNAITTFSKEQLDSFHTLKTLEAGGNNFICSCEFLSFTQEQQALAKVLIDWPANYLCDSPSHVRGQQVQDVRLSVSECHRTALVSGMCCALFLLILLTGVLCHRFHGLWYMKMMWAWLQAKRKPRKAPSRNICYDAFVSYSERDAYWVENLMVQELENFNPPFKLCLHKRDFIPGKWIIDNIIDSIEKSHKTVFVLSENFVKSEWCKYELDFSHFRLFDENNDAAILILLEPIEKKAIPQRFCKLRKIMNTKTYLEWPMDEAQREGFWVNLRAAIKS
Chain of Toll-like receptor 1/2 (Q15399 whole entry): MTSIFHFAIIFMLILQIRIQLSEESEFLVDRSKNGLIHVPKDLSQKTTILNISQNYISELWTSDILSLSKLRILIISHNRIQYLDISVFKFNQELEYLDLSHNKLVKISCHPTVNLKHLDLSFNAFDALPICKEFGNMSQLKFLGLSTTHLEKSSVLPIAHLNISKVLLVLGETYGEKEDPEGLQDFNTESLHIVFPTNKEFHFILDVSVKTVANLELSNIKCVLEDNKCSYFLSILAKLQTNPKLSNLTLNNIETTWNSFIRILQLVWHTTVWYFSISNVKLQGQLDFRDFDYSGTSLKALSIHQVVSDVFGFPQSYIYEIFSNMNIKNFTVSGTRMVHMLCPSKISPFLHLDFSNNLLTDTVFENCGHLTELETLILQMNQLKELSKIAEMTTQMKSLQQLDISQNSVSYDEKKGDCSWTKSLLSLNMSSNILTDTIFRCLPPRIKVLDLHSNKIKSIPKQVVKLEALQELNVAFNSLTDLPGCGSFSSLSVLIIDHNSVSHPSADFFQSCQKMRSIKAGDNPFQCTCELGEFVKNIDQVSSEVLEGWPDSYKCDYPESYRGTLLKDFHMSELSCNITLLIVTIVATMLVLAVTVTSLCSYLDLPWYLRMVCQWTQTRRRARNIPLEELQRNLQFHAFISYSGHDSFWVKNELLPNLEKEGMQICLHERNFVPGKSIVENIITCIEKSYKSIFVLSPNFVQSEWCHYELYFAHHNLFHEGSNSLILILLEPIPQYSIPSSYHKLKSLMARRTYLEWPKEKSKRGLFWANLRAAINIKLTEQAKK

With `O=C(NCCc1ccc(F)cc1)[C@@H]1CN(C(=O)c2cccc(C(=O)N3C[C@@H](C(=O)NCCc4ccc(F)cc4)[C@H](C(=O)NCCc4ccc(F)cc4)C3)c2)C[C@H]1C(=O)NCCc1ccc(F)cc1`, the EC50 (in experiment [1]; at Toll-like receptor 1/2) was above 5000 nM throughout.
`O=C(N[C@H]1C[C@@H]1c1ccccc1)[C@@H]1CN(C(=O)c2ccc(C(=O)N3C[C@@H](C(=O)N[C@H]4C[C@@H]4c4ccccc4)[C@H](C(=O)N[C@H]4C[C@@H]4c4ccccc4)C3)c(Br)c2)C[C@H]1C(=O)N[C@H]1C[C@@H]1c1ccccc1`: the EC50 (in experiment [1]; on Toll-like receptor 1/2) was above 5000 nM in each case.
With `CCCCCCCCCCCCCCNC(=O)[C@@H]1CN(C(=O)c2ccc(C(=O)N3C[C@@H](C(=O)NCCCCCCCCCCCCCC)[C@H](C(=O)NCCCCCCCCCCCCCC)C3)cc2)C[C@H]1C(=O)NCCCCCCCCCCCCCC`, the EC50 (in experiment [1]; at Toll-like receptor 1/2) was above 5 nM throughout.
As to `O=C(NCCc1ccc(F)cc1)[C@@H]1CN(C(=O)c2ccc(-c3ccc(C(=O)N4C[C@@H](C(=O)NCCc5ccc(F)cc5)[C@H](C(=O)NCCc5ccc(F)cc5)C4)cc3)cc2)C[C@H]1C(=O)NCCc1ccc(F)cc1`, the EC50 (in experiment [1]; on Toll-like receptor 1/2) was above 5000 nM throughout.
With `COc1cc(C(=O)N2C[C@@H](C(=O)N[C@H]3C[C@@H]3c3ccccc3)[C@H](C(=O)N[C@H]3C[C@@H]3c3ccccc3)C2)ccc1C(=O)N1C[C@@H](C(=O)N[C@H]2C[C@@H]2c2ccccc2)[C@H](C(=O)N[C@H]2C[C@@H]2c2ccccc2)C1`, the EC50 is 250 nM in experiment [1] and 30 nM on Toll-like receptor 1/2.
With `O=C(NCCc1ccc(F)cc1)[C@@H]1CN(C(=O)c2ccc3cc(C(=O)N4C[C@@H](C(=O)NCCc5ccc(F)cc5)[C@H](C(=O)NCCc5ccc(F)cc5)C4)ccc3c2)C[C@H]1C(=O)NCCc1ccc(F)cc1`, the EC50 (in experiment [1]; at Toll-like receptor 1/2) was above 5000 nM in each case.
Take `CCCCCCNC(=O)[C@@H]1CN(C(=O)c2ccc(C(=O)N3C[C@@H](C(=O)NCCCCCC)[C@H](C(=O)N[C@@H]4C[C@H]4c4ccccc4)C3)cc2)C[C@H]1C(=O)N[C@@H]1C[C@H]1c1ccccc1`: the EC50 in experiment [1] was found to be 1100 nM; at Toll-like receptor 1/2, 0.8 nM.
The matching figures for `Nc1cc(C(=O)N2C[C@@H](C(=O)N[C@H]3C[C@@H]3c3ccccc3)[C@H](C(=O)N[C@H]3C[C@@H]3c3ccccc3)C2)ccc1C(=O)N1C[C@@H](C(=O)N[C@H]2C[C@@H]2c2ccccc2)[C@H](C(=O)N[C@H]2C[C@@H]2c2ccccc2)C1`: 140 nM and 1 nM.
For `O=C(N[C@H]1C[C@@H]1c1ccccc1)[C@@H]1CN(C(=O)c2cc(Br)c(C(=O)N3C[C@@H](C(=O)N[C@H]4C[C@@H]4c4ccccc4)[C@H](C(=O)N[C@H]4C[C@@H]4c4ccccc4)C3)cc2Br)C[C@H]1C(=O)N[C@H]1C[C@@H]1c1ccccc1`, in that order: above 5000 nM and 860 nM.
As to `O=C(N[C@H]1C[C@@H]1c1ccccc1)[C@@H]1CN(C(=O)Cc2cccc(CC(=O)N3C[C@@H](C(=O)N[C@H]4C[C@@H]4c4ccccc4)[C@H](C(=O)N[C@H]4C[C@@H]4c4ccccc4)C3)c2)C[C@H]1C(=O)N[C@H]1C[C@@H]1c1ccccc1`, the EC50 (in experiment [1]; on Toll-like receptor 1/2) was above 5000 nM throughout.
Regarding `Cc1cc(C(=O)N2C[C@@H](C(=O)N[C@H]3C[C@@H]3c3ccccc3)[C@H](C(=O)N[C@H]3C[C@@H]3c3ccccc3)C2)c(C)cc1C(=O)N1C[C@@H](C(=O)N[C@H]2C[C@@H]2c2ccccc2)[C@H](C(=O)N[C@H]2C[C@@H]2c2ccccc2)C1`, the EC50 (in experiment [1]; at Toll-like receptor 1/2) was above 5000 nM each time.
Consider `CCCCCCCCCCCCCCCCNC(=O)[C@@H]1CN(C(=O)c2ccc(C(=O)N3C[C@@H](C(=O)NCCCCCCCCCCCCCCCC)[C@H](C(=O)NCCCCCCCCCCCCCCCC)C3)cc2)C[C@H]1C(=O)NCCCCCCCCCCCCCCCC`, for which the EC50 in experiment [1] was above 5 nM.
In experiment [1], `CCCCCCCCNC(=O)[C@@H]1CN(C(=O)c2ccc(C(=O)N3C[C@@H](C(=O)NCCCCCCCC)[C@H](C(=O)NCCCCCCCC)C3)cc2)C[C@H]1C(=O)NCCCCCCCC` yielded an EC50 above 5 nM.
